Results reported in patent publication US20190125702A1, “Methods and Compositions for the Treatment of Demyelinating Disorders” (Vitality Biopharma, Inc., priority 2016, published 2019).
Entries after “also recorded” stand apart in the source; their conditions may differ.

How the values were obtained:
[1] = system: E18 rat embryonic cortical co-cultures (MBP fiber length/Olig2 nuclei); assay: embryonic cortical cell co-culture myelination assay; format: cell-based; conditions: for EC50: Rattus norvegicus, 192 h, cortical myelination assay, eight days treatment, N >= 2; for myelination in the cortical myelination assay (in words): compound added DIV5, eight days, live axons
Text: Embryonic Cortical Culture Methods: The dissection of E18 rat (Charles River, Wilmington, Mass., USA) cortex is similar to that described previously, [32], [33] with some modifications. Briefly whole cortices from three embryos were collected in a petri dish containing HBSS. After carefully removing the meninges, the tissue was divided into cortical hemispheres, dissected and the non-cortical structures were removed. Cortical tissue was then digested in 7 U/ml papain dissolved in HBSS with 500 U/ml DNase I, and incubated for 30 minutes at 35° C. The enzymatic reaction was terminated with DMEM containing 10% FBS. The tissue was allowed to settle, supernatant was removed and tissue was triturated with a flame-polished glass Pasteur pipette in DMEM/10% FBS, 250 U/ml DNAse I until the tissue was completely dispersed. The dissociated cell suspension was centrifuged at 200×g for 5 minutes and supernatant replaced with plating medium (NB medium with 1× N21 supplement and 2 mM L-glutamine and 1% penicillin-streptomycin). […] Isolated cells were seeded onto 96-well plates pre-coated with poly-D-lysine (10 μg/m1) and laminin (2 ␣/ml) at a density of 20,000 cells/well ([…]). Neurons were allowed to adhere, recover, mature and extend axons for three days. On the fourth day, the plating medium was diluted with an equivolume of myelination medium (MyM), as described in Watkins et al., 2008 [9] with minor modifications (see results). The following day, two-thirds of the medium was replaced with fresh MyM and test compound. The day after establishing the primary culture was defined as day 1 in vitro (DIV1).
Immunofluorescence Staining and Imaging: At the experimental end point, medium was removed leaving 50 μl/well using an ELX405 microplate washer (BioTek, Winooski, Vt., USA). Cells were then fixed for 14 min with paraformaldehyde solution to a final concentration of 4%. Following fixation, plates were washed with 1 ml PBS leaving 50 μl/well using the microplate washer. Cells were then blocked in blocking buffer (10% normal goat serum, 0.1% Triton X-100, antibody buffer (150 mM NaCl, 50 mM Tris Base, 1% BSA, 100 mM L-lysine, 0.004% sodium azide, pH 7.4), and stained with mouse anti-rat MBP antibody and anti-rabbit Olig2 diluted in blocking buffer overnight at 4° C. The cells were washed and incubated with secondary antibodies, and DAPI, 0.3 μM for 1 h at room temperature. After a final wash, 100 μl of PBS was added to each well and plates imaged. Images were captured with a Nikon Eclipse TE-2000-U microscope, Zyla cMOS megapixel camera (ANDOR Technology, Belfast, UK), fitted with an automated stage controlled by NIS Elements AR software 4.0 (Melville, N.Y., USA). An air 10× lens was used to capture four images per well with 16 bit resolution, 2560×2160 pixels. Images for each assay run were captured using identical camera settings. Images were exported as TIFF files for analysis and quantification.
Image Quantification: TIFF files were analyzed using a custom algorithm created with IN Cell Investigator Developer Toolbox (GE Health Sciences, Piscataway, N.J., USA). For each well, four images were analyzed and the data from the duplicate well combined and averaged (total of eight images per test condition). The extent of OL differentiation was defined by the total threshold-selected area of MBP staining×MBP fluorescence intensity in this area divided by the total number of OLs (identified by Olig2 nuclear staining). We referred to this as the “MBP score” or “OL differentiation”. Earlier publications have characterized in vitro myelination as contiguous segments of MBP staining co-localizing with axons, representing the contact and ensheathment of axons with the myelin membrane generated by OLs.

[2] = system: purified OPCs from P7 Sprague-Dawley rat pups; assay: acute oligodendrocyte differentiation assay with acutely purified OPCs; format: cell-based; conditions: 4 days culture, MBP staining intensity
Experimental: Acute Oligodendrocyte Differentiation Assay: OPCs from P7 Sprague-Dawley rat pups were purified by immunopanning and cultured as described. OPCs were plated at 5000 cells/well into pDL-Laminin coated 96-well TC plate wells and centrifuged at 200×g to facilitate cell attachment, survival, and assure even distribution of OPCs. Plated OPCs were pre-incubated for 1-2 hours at 37° C. in 10% CO2 incubator, followed by addition of test compounds in quadruplicate. Controls were added in eight replicate wells, negative control=0.1% DMSO final concentration; positive control=40 ng/ml T3. The day of OPC plating was considered DIV0. On DIV4, cells were fixed, immunostained, and imaged as described below. Minor modifications include blocking cells with 10% normal goat serum (NGS)/0.4% Triton X-100 and staining overnight at 4° C. with rat anti-MBP antibodies diluted in 10% NGS/0.08% Triton X-100. OL differentiation was quantified by IN Cell Developer Toolbox image analysis software which calculated the MBP staining intensity of two images per well. The extent of OL differentiation was defined by the total threshold-selected area of MBP staining×MBP fluorescence intensity in this area divided by the total number of OLs (identified by DAPI nuclear staining).

purified OPCs = conditions: lead compounds of published studies [2],[3],[4]; cited from earlier work

Compound	EC50 [1] [µM]	myelination in the cortical myelination assay (in words) [1]	also measured
N=C(N)NC(=O)c1nc(Cl)c(N)nc1N [Amiloride]	8.9	–	–
C[C@H]1[C@H](OC(=O)CCC(=O)O)O[C@@H]2O[C@@]3(C)CC[C@H]4[C@H](C)CC[C@@H]1[C@@]24OO3 [Artesunate]	3.3	–	–
COc1ccc(CC2c3cc(OC)c(OC)cc3CC[N+]2(C)CCC(=O)OCCCCCOC(=O)CC[N+]2(C)CCc3cc(OC)c(OC)cc3C2Cc2ccc(OC)c(OC)c2)cc1OC (stereo not shown) [Atracurium Besylate]	5.3	–	–
NC(=O)[C@@H](CCC(F)(F)F)N(Cc1ccc(-c2ncon2)cc1F)S(=O)(=O)c1ccc(Cl)cc1 [BMS 708, 163]	0.067	–	–
C[C@H](NC(=O)Cc1cc(F)cc(F)c1)C(=O)N[C@H](C(=O)OC(C)(C)C)c1ccccc1 [DAPT, N-[N-(3,5-Difluorophenacetyl)-L-alanyl]-S-phenylglycine t-butyl ester]	–	significant dose-dependent increases in myelination	reduction of the number of Olig2+ cells [1]: ~50%; DAPT/DMSO myelination ratio ([1]; 5 days NB/N21 and 8 days MyM plus test compound): 7.7; fiber/MBP score, typically observed ([1]; DAPT treated cultures): > 1.5; promotion of myelination, fold over DMSO ([1]; cultures without exogenously added OPCs): 1.76 fold over DMSO; average DAPT/DMSO Fiber/MBP ratio ([1]; entire NCC library screen, plate controls): 1.61
C[C@H]1O[C@@H](O[C@H]2[C@@H](O)C[C@H](O[C@H]3[C@@H](O)C[C@H](O[C@H]4CC[C@@]5(C)[C@H](CC[C@@H]6[C@@H]5C[C@@H](O)[C@]5(C)[C@@H](C7=CC(=O)OC7)CC[C@]65O)C4)O[C@@H]3C)O[C@@H]2C)C[C@H](O)[C@@H]1O [Digoxin]	11.3	–	–
CC(=O)O[C@@]12CO[C@@H]1C[C@H](O)[C@@]1(C)C(=O)[C@H](O)C3=C(C)[C@@H](OC(=O)[C@H](O)[C@@H](NC(=O)OC(C)(C)C)c4ccccc4)C[C@@](O)([C@@H](OC(=O)c4ccccc4)[C@H]21)C3(C)C [Docetaxel]	0.1	–	–
O=S(=O)(NC1CCC(c2cc(F)ccc2F)(S(=O)(=O)c2ccc(Cl)cc2)CC1)C(F)(F)F (stereo not shown) [MRK 560]	0.082	–	–
CN(Cc1cnc2nc(N)nc(N)c2n1)c1ccc(C(=O)N[C@@H](CCC(=O)O)C(=O)O)cc1 [Methotrexate]	0.1	–	Olig2+ nuclei expression (in words) ([1]; NCC library screen): very low overall Olig2+ nuclei expression
NC(=O)N1c2ccccc2CC(=O)c2ccccc21 [Oxcarbazepine]	14.7	–	–
O=c1[nH]c(=O)n(C2CCCO2)cc1F (stereo not shown) [Tegafur]	2.7	–	–
COc1cc(CNC(=O)CCCC/C=C\C(C)C)ccc1O [Zu-capsaicin]	4.7	–	–
CN1[C@@H]2CC[C@H]1C[C@@H](OC(c1ccccc1)c1ccccc1)C2 [benztropine]	–	little to no activity; also recorded: no effect on myelination; also recorded: did not promote myelination	OL differentiation of purified OPCs (in words) [2]: facilitate OL differentiation; also recorded: significant OL differentiation; OL differentiation in cultures of purified OPCs (published screens) (purified OPCs): facilitate OL differentiation
CN1CCC[C@@H]1CCO[C@](C)(c1ccccc1)c1ccc(Cl)cc1 [clemastine]	–	little to no activity; also recorded: no effect on myelination; also recorded: did not promote myelination	OL differentiation of purified OPCs (in words) [2]: facilitate OL differentiation; also recorded: significant OL differentiation; OL differentiation in cultures of purified OPCs (published screens) (purified OPCs): facilitate OL differentiation
C[C@H]1C[C@H]2[C@@H]3CCC4=CC(=O)C=C[C@]4(C)[C@@]3(F)[C@@H](O)C[C@]2(C)[C@@]1(O)C(=O)CCl [clobetasol]	–	no effect on myelination	OL differentiation in cultures of purified OPCs (published screens) (purified OPCs): facilitate OL differentiation
Clc1ccc(COC(Cn2ccnc2)c2ccc(Cl)cc2Cl)c(Cl)c1 (stereo not shown) [miconazole]	–	no effect on myelination	OL differentiation in cultures of purified OPCs (published screens) (purified OPCs): facilitate OL differentiation
